Drawing on patent US12616754B2, “Composition for delivery of a bioactive agent and method of manufacture and use thereof” (priority 2020, dated 2026), this text covers IC50 for one compound.

Holding throughout (experiment): Cell viability WST-8 assay
What all share (type): cell-based
On the technique in general: Formazan colour is commonly taken as a measure of viable cells.

In experiment [1] the test system is H1299 non-small cell lung carcinoma cells. To be noted: H1299, 24 h. As to the method:
(§1) A549, BEAS-2B, H1299 and LL2 cells were cultured in 96-well plates at a density of 1×10^4 cells/well in DMEM supplemented with 2.0 mM L-glutamine, 50 μg/mL gentamicin, and 10% (v/v) fetal bovine serum at 37° C. in 5% CO2. Cells were then treated with various concentrations of free DOX, DNA NGs, and DNA-DOX NGs. After 24 h incubation, cell proliferation was evaluated using a WST-8 reagent (Dojindo Molecular Laboratories, Japan). After transferring the supernatant to 96-well plates, the supernatant was measured on a VersaMax Microplate Reader (Molecular Devices, Sunnyvale, CA, USA) at the wavelength of 405 nm. Cell viability was determined using the following equation: cell viability (%)=[(Abs405 nm in the treated sample cells−Abs405 nm in blank)/(Abs405 nm in untreated control cells−Abs405 nm in blank)]×100, wherein Abs405 nm refers to absorbance at 405 nm.

In experiment [2] the test system is A549 lung adenocarcinoma cells. The conditions noted are these: A549, 24 h. As to the method:
as §1

The test system of experiment [3] is BEAS-2B bronchial epithelial cells. To be noted: 24 h. As to the method:
as §1

For experiment [4], the system named is LL2 Lewis lung carcinoma cells. To be noted: LL2, 24 h. As to the method:
as §1

What is called IC50 is the midpoint of a concentration-inhibition curve. A high value points to weaker potency in that assay. As to `COc1cccc2c1C(=O)c1c(O)c3c(c(O)c1C2=O)C[C@@](O)(C(=O)CO)C[C@@H]3O[C@H]1C[C@H](N)[C@H](O)[C@H](C)O1.Cl` [Free DOX, doxorubicin hydrochloride], the IC50 in experiment [1] was 18.9 µg/mL; in experiment [2], 2.92 µg/mL; in experiment [3] it was 5.11 µg/mL; in experiment [4], 2.33 µg/mL.
